Data published in patent publication US9109004B2, “Progesterone receptor antagonists” (Bayer Intellectual Property GmbH, priority 2010, dated 2015).

Legend:
[1] = Clearance and half-life after intravenous application in rats; assay type: in vivo, rat; settings: female rats, i.v. bolus 0.3-0.5 mg/kg
Description: Determination of Clearance and Half-Life after Intravenous Application in Rats
The in-vivo clearance and half-life of the test substances were determined in female rats with a body weight of approx. 200-250 g. For this, the test substances (in cassette testing, up to 3 different substances per animal) were applied in dissolved form at a dose of 0.3-0.5 mg/kg as a bolus with a volume of 2 ml/kg intravenously (i.v.) in the caudal vein, using compatible solubilizers such as PEG400 and/or ethanol in a compatible amount. Blood samples of approx. 0.2 mL were taken from a polyurethane catheter in the vena jugularis at the time points 2 min, 8 min, 15 min, 30 min, 45 min, 1 h, 2 h, 4 h, 6 h, 8 h, 24 h. The blood samples were kept in lithium-heparin tubes (Monovetten® from Sarstedt) without shaking, and were centrifuged for 15 min at 3000 rpm. A 100 μL aliquot was taken from the supernatant (plasma) and was precipitated by adding 400 μL of cold methanol. The precipitated samples were frozen out overnight at −20° C., then centrifuged once again for 15 min at 3000 rpm before 150 μL of the clear supernatant was taken for the determination of concentration. Analysis was carried out with an Agilent 1200 HPLC system connected to LCMS/MS detection.
Calculation of the pK Parameters (Via Non-Linear Regression by pK Calculation Software): […]

[2] = biological target: T1, human progesterone receptor B (Homo sapiens, UniProt P06401); assay: Progesterone-receptor-antagonistic action in stably transfected SK-N-MC cells, MTV-LUC reporter (PR-B); assay type: cell-based; settings: antagonistic potency vs 0.1 nmol/l promegestone, 24 hours, luciferase
T1 construct: expressed in transfected cells; host or cells: SK-N-MC human neuroblastoma cells, stably transfected
T1 sequence (P06401 1-933): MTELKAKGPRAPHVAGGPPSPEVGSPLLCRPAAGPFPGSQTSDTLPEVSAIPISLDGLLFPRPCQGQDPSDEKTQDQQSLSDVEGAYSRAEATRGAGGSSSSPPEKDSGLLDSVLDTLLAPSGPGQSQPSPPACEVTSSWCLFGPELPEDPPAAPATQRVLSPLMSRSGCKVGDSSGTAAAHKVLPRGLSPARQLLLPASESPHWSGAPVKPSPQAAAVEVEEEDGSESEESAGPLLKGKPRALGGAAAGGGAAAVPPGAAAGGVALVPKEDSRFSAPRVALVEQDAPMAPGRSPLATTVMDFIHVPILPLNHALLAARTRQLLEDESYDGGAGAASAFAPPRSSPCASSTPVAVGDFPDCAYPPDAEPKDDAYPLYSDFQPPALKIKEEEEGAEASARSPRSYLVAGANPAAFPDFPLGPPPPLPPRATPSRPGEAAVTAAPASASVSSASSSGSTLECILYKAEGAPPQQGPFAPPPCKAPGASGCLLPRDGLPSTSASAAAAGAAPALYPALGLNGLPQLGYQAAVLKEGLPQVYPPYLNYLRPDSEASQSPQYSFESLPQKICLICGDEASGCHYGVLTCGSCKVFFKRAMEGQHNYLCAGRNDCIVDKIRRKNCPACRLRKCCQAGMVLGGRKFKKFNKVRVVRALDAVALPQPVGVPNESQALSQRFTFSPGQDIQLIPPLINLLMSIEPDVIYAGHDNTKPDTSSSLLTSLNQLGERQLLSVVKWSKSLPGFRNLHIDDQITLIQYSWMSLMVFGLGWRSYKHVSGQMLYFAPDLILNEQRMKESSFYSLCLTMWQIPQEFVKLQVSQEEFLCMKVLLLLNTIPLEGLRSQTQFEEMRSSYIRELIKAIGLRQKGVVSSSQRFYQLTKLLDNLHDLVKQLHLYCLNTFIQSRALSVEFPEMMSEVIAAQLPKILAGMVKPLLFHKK
Description: Progesterone-Receptor-Antagonistic Action in Stable Transfectants of Human Neuroblastoma Cells (SK-N-MC Cells) with the Human Progesterone A or Progesterone B Receptor and an MTV-LUC Reporter Construct
SK-N-MC cells (human neuroblastoma cells) that have been stably transfected with plasmids that express the human progesterone receptor B (pRChPR-B-neo) or the human progesterone receptor A (pRChPR-A-neo) and a reporter construct (pMMTV-LUC), were incubated for 24 hours either in the absence (negative control) or in the presence of increasing amounts of the particular test compound (0.01 nmol/l, 0.1 nmol/l, 1 nmol/l, 10 nmol/l, 100 nmol/l and 1 μmol/l), to determine the agonistic efficacy. As positive control of reporter gene induction, the cells were treated with the synthetic gestagen promegestone (0.01 nmol/l, 0.1 nmol/l, 1 nmol/l, 10 nmol/l, 100 nmol/l and 1 μmol/l). For determination of the antagonistic activity, the cells were treated with 0.1 nmol/l promegestone and additionally with increasing amounts of the particular test compound (0.01 nmol/l, 0.1 nmol/l, 1 nmol/l, 10 nmol/l, 100 nmol/l and 1 μmol/l). The activity of the reporter gene LUC (LUC=luciferase) was determined in the cell lysates and was measured as RLU (relative light units). All measured values are given as % efficacy and as EC50 or IC50 concentrations.

## C[C@]12C[C@H](c3ccc(-c4ccc(C(N)=O)cc4)cc3)C3=C4CCC(=O)C=C4CC[C@H]3[C@@H]1CC[C@@]2(O)C(F)(F)C(F)(F)F [Example 79, 4′-[(11β,17β)-17-Hydroxy-3-oxo-17-(pentafluoroethyl)estra-4,9-dien-11-yl]biphenyl-4-carboxamide]
[1]
  CLblood: 6.7 mL/min/kg
[1]; rat, plasma, iv, terminal half-life, read-out: t½ (converted)
  half-life: 9 h
[2]
  IC50: 0.07 nM
